Experimental data reported in paper PMC6896485, “Aryl derivatives of 3H-1,2-benzoxathiepine 2,2-dioxide as carbonic anhydrase inhibitors” (Journal of Enzyme Inhibition and Medicinal Chemistry, 2019).
Read-outs that look alike come from different tables or passages of the source.

Columns and labels:
hCA IX = biological target: T1, hCA IX (Homo sapiens, UniProt Q16790); assay: stopped-flow CO2 hydration; format: biochemical; details: read-out: KI (nM) ^* / CA IX
T1 construct: gene CA9; recombinant, obtained in-house
Source text: stopped-flow CO2 hydration on hCA IX

hCA XII = biological target: T2, hCA XII (Homo sapiens, UniProt O43570); assay: stopped-flow CO2 hydration; format: biochemical; details: read-out: KI (nM) ^* / CA XII
T2 construct: gene CA12; recombinant, obtained in-house
Source text: (§1) stopped-flow CO2 hydration on hCA XII

[1] = stopped-flow CO2 hydration; format: biochemical, Homo sapiens; details: read-out: KI (nM) ^* / CA I
Source text: as §1

[2] = CO2 […], Hepes pH […] Na2SO4, […] h preincubation at room temperature

T2 sequence (O43570 25-354): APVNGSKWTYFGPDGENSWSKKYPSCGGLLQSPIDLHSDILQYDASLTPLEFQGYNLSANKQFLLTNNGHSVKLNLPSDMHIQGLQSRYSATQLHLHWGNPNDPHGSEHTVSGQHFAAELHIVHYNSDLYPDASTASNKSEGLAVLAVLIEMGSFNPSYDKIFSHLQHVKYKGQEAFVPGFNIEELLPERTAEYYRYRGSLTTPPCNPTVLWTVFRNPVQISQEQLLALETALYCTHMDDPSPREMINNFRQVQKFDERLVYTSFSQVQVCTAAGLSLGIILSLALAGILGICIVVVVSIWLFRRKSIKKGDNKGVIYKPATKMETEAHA

Row | Compound | Ki (hCA IX) [nM] | Ki (hCA XII) [nM] | Ki (hCA XII; [2]) [nM] | Ki (hCA IX; [2]) [nM] | Ki [1] [nM]
1 | O=S1(=O)CC=Cc2cc(-c3ccccc3)ccc2O1 [compound 8, 7-Phenyl-3H-1,2-benzoxathiepine 2,2-dioxide] | 655 | 1380 |  |  | 
2 | COc1ccc(-c2ccc3c(c2)C=CCS(=O)(=O)O3)cc1 [compound 9, 7–(4-Methoxyphenyl)-3H-1,2-benzoxathiepine 2,2-dioxide] | 408 | 2930 |  |  | 
3 | CCOC(=O)c1ccc(-c2ccc3c(c2)C=CCS(=O)(=O)O3)cc1 [compound 12, 7–(4-(Ethoxycarbonyl)phenyl)-3H-1,2-benzoxathiepine 2,2-dioxide] | 621 | 2400 |  |  | 
4 | O=S1(=O)CC=Cc2ccc(-c3ccc(C(F)(F)F)cc3)cc2O1 [compound 24, 8–(4-(Trifluoromethyl)phenyl)-3H-1,2-benzoxathiepine 2,2-dioxide] |  | 248 |  | 44 | 
5 | O=S1(=O)CC=Cc2cccc(Br)c2O1 [compound 29, 9-Bromo-3H-1,2-benzoxathiepine 2,2-dioxide] | 755 | 3820 |  |  | 
6 | O=S1(=O)CC=Cc2cccc(-c3ccccc3)c2O1 [compound 30, 9-Phenyl-3H-1,2-benzoxathiepine 2,2-dioxide] | 21100 |  |  |  | > 100000
7 | COc1ccc(-c2cccc3c2OS(=O)(=O)CC=C3)cc1 [compound 31, 9–(4-Methoxyphenyl)-3H-1,2-benzoxathiepine 2,2-dioxide] | 60900 |  |  |  | > 100000
8 | O=S1(=O)CC=Cc2cccc(-c3ccc(F)cc3)c2O1 [compound 32, 9–(4-Fluorophenyl)-3H-1,2-benzoxathiepine 2,2-dioxide] | 33700 |  |  |  | > 100000
9 | O=S1(=O)CC=Cc2cccc(-c3ccc(C(F)(F)F)cc3)c2O1 [compound 33, 9–(4-(Trifluoromethyl)phenyl)-3H-1,2-benzoxathiepine 2,2-dioxide] | 47100 |  |  |  | > 100000
10 | CCOC(=O)c1ccc(-c2cccc3c2OS(=O)(=O)CC=C3)cc1 [compound 34, 9–(4-(Ethoxycarbonyl)phenyl)-3H-1,2-benzoxathiepine 2,2-dioxide] | 16400 |  |  |  | > 100000

The next lines start with the values.

Row | Ki (hCA IX) [nM] | Ki (hCA XII) [nM] | Ki (hCA XII; [2]) [nM] | Ki (hCA IX; [2]) [nM] | Ki [1] [nM] | Compound
11 | 66.2 | 455 |  |  |  | O=S1(=O)CC=Cc2cc(I)ccc2O1 [compound 7, 7-Iodo-3H-1,2-benzoxathiepine 2,2-dioxide]
12 | 331 | 890 |  |  |  | O=S1(=O)CC=Cc2cc(-c3ccc(F)cc3)ccc2O1 [compound 10, 7–(4-Fluorophenyl)-3H-1,2-benzoxathiepine 2,2-dioxide]
13 | 221 | 4020 |  |  |  | O=S1(=O)CC=Cc2cc(-c3ccc(C(F)(F)F)cc3)ccc2O1 [compound 11, 7–(4-(Trifluoromethyl)phenyl)-3H-1,2-benzoxathiepine 2,2-dioxide]
14 | 47.5 | 133 |  |  |  | O=S1(=O)CC=Cc2ccc(Br)cc2O1 [compound 20, 8-Bromo-3H-1,2-benzoxathiepine 2,2-dioxide]
15 | 105 | 473 |  |  |  | O=S1(=O)CC=Cc2ccc(-c3ccccc3)cc2O1 [compound 21, 8-Phenyl-3H-1,2-benzoxathiepine 2,2-dioxide]
16 | 63.1 | 169 |  |  |  | COc1ccc(-c2ccc3c(c2)OS(=O)(=O)CC=C3)cc1 [compound 22, 8–(4-Methoxyphenyl)-3H-1,2-benzoxathiepine 2,2-dioxide]
17 | 95.2 |  | 77.9 |  |  | O=S1(=O)CC=Cc2ccc(-c3ccc(F)cc3)cc2O1 [compound 23, 8–(4-Fluorophenyl)-3H-1,2-benzoxathiepine 2,2-dioxide]
18 | 79.8 | 289 |  |  |  | CCOC(=O)c1ccc(-c2ccc3c(c2)OS(=O)(=O)CC=C3)cc1 [compound 25, 8–(4-(Ethoxycarbonyl)phenyl)-3H-1,2-benzoxathiepine 2,2-dioxide]
